Measurements as given in paper PMC8175851, “Effects of Genetic Polymorphism in CYP2D6, CYP2C19, and the Organic Cation Transporter OCT1 on Amitriptyline Pharmacokinetics in Healthy Volunteers and Depressive Disorder Patients” (Frontiers in Pharmacology, 2021).
Where “and” joins values, the source holds several entries; their conditions need not be identical. Identical values can stand only once. Like-named read-outs stand apart in the source and are kept apart here.

Assay: Pharmacokinetics of AT and NT in healthy volunteers after a single dose of 25 mg amitriptyline
Format: in vivo, human
Settings: for AUC(0-inf) / AUC(0-t) / Cmax / Tmax / half-life: both sexes, human, plasma, po, 25 mg, single oral 25 mg AT; for AUC(0-t): read-out: AUC48h; for Cmax: read-out: Cmax
Excerpt: In order to enrich the study sample with the less frequent functionally deficient OCT1 variants, participants were selected based on OCT1 genotype from an internal database at the Institute of Clinical Pharmacology of the University Medical Center Göttingen. All volunteers who are listed in the internal database had agreed to it and the database was approved by the ethics committee of the University of Göttingen. […] Additional subjects with heterozygous genotypes were included to provide a better understanding of the effects of specific variants and the mode of inheritance. All volunteers gave their written informed consent before participation in the study. The study was approved by the ethics committee of the University of Göttingen and the German Federal Institute for Drugs and Medical Devices (BfArM). It was registered at the clinical trials databases Clinicaltrials.gov (NCT02054299) and EudraCT (number 2012-003546-33). […] Volunteers who underwent regular drug treatments other than oral contraceptives or who suffered from any relevant chronic illness, as well as pregnant or lactating women, were not included. All subjects were healthy according to a detailed medical history, medical examination, electrocardiogram, urine status and clinical chemistry, and haematology parameters (sodium, potassium, total bilirubin, aspartate aminotransferase, alanine-aminotransferase, creatinine, C-reactive protein, thyroid-stimulating hormone, haemoglobin, erythrocyte, thrombocyte, and leucocyte counts). […] After centrifugation (13,000 rpm, 15 min, room temperature), two-thirds of the supernatant were transferred to a new reaction tube and evaporated at 40°C under nitrogen flow. The residue was reconstituted under shaking in 0.1% methanoic acid and briefly centrifuged before quantification using a Nexera UHPLC system (Shimadzu, Kyoto, Japan) coupled to an API 4000 tandem mass spectrometer (AB Sciex, Darmstadt, Germany). […] PerkinElmer, Rodgau, Germany) with a Phenomenex C18 pre-column (4 × 2 mm, Phenomenex, Aschaffenburg, Germany). […] The lower limit of quantification was 0.5 ng/ml for AT and 0.1 ng/ml for NT. […] The mass spectrometry detection parameters are listed in Supplementary Table S1. For the study in healthy volunteers, the primary endpoints were the AUCs of plasma AT and NT concentrations. Secondary endpoints were the other pharmacokinetic parameters of AT and NT, as well as heart rate, blood pressure, pupil size effects, and possible adverse events (headache, fatigue, visual or hearing impairments, restlessness, nausea, dizziness, dry mouth, tremor, as well as sensations of hypothermia and heart palpitations determined using a visual analogue scale test). Pharmacokinetic parameters were calculated by non-compartmental analysis using Phoenix 64 WinNonlin version 6.3 (Certara Inc., Princeton, NJ, United States). AUCinf of AT was calculated from the time of dosing using the linear/log trapezoidal rule and extrapolated to infinity based on the last predicted concentration and using the terminal elimination rate constant (lambda z). AUC of NT was calculated from the time of dosing until the last measurement at 48 h using the linear/log trapezoidal rule, as a decline in NT concentrations was not observed in some subjects and extrapolation to infinity thus not possible.

[1] = healthy volunteers, 0 active OCT1 alleles (n = 12)
[2] = healthy volunteers, 1 active OCT1 allele (n = 9)
[3] = healthy volunteers, 2 active OCT1 alleles (n = 14)
[4] = healthy volunteers, CYP2C19 activity score 1 (n = 5), mean
[5] = healthy volunteers, CYP2C19 activity score 1.5 (n = 2), mean
[6] = healthy volunteers, CYP2C19 activity score 2 (n = 16), mean
[7] = healthy volunteers, CYP2C19 activity score 2.5 (n = 10), mean
[8] = healthy volunteers, CYP2D6 activity 0 (n = 3), mean
[9] = healthy volunteers, CYP2D6 activity 0.5 (n = 2), mean
[10] = healthy volunteers, CYP2D6 activity 1 (n = 10), mean
[11] = healthy volunteers, CYP2D6 activity 1.5 (n = 6), mean
[12] = healthy volunteers, CYP2D6 activity 2 (n = 11), mean
[13] = healthy volunteers, CYP2D6 activity 2.5 (n = 1), mean
[14] = healthy volunteers, CYP2D6 activity 3 (n = 2), mean

maximum concentration of unbound AT in the portal vein (estimated) (based on the calculations by Ahlin et al. and Ito et al., listed as AT): 745.9 µg/L and 2.69 µM
AUC(0-inf) (35 healthy volunteers, read-out: AUCinf (range over all volunteers)): 110 to 430 ng·h/mL
AUC(0-t) [1]: 162 ± 40.5 ng·h/mL
AUC(0-inf) (healthy volunteers, 0 active OCT1 alleles (n = 12), read-out: AUCinf): 199 ± 60 ng·h/mL
Cmax [1]: 9.9 ± 3.9 ng/mL
AUC(0-t) [2]: 184 ± 56 ng·h/mL
AUC(0-inf) (healthy volunteers, 1 active OCT1 allele (n = 9), read-out: AUCinf): 228 ± 72.4 ng·h/mL
Cmax [2]: 10.5 ± 3.3 ng/mL
AUC(0-t) [3]: 194 ± 66.3 ng·h/mL
AUC(0-inf) (healthy volunteers, 2 active OCT1 alleles (n = 14), read-out: AUCinf): 243 ± 87.5 ng·h/mL
Cmax [3]: 11.6 ± 4 ng/mL
AUC(0-t) [4]: 183 ng·h/mL
AUC(0-inf) (healthy volunteers, CYP2C19 activity score 1 (n = 5), mean, read-out: AUCinf): 231 ng·h/mL
Cmax [4]: 11.1 ng/mL
AUC(0-t) [5]: 256 ng·h/mL
AUC(0-inf) (healthy volunteers, CYP2C19 activity score 1.5 (n = 2), mean, read-out: AUCinf): 317 ng·h/mL
Cmax [5]: 16.2 ng/mL
AUC(0-t) [6]: 172 ng·h/mL
AUC(0-inf) (healthy volunteers, CYP2C19 activity score 2 (n = 16), mean, read-out: AUCinf): 210 ng·h/mL
Cmax [6]: 10.5 ng/mL
AUC(0-t) [7]: 171 ng·h/mL
AUC(0-inf) (healthy volunteers, CYP2C19 activity score 2.5 (n = 10), mean, read-out: AUCinf): 211 ng·h/mL
Cmax [7]: 9.5 ng/mL
AUC(0-t) [8]: 236 ng·h/mL
AUC(0-inf) (healthy volunteers, CYP2D6 activity 0 (n = 3), mean, read-out: AUCinf): 311 ng·h/mL
Cmax [8]: 10.9 ng/mL
AUC(0-t) [9]: 166 ng·h/mL
AUC(0-inf) (healthy volunteers, CYP2D6 activity 0.5 (n = 2), mean, read-out: AUCinf): 214 ng·h/mL
Cmax [9]: 12.7 ng/mL
AUC(0-t) [10]: 199 ng·h/mL
AUC(0-inf) (healthy volunteers, CYP2D6 activity 1 (n = 10), mean, read-out: AUCinf): 251 ng·h/mL
Cmax [10]: 11.9 ng/mL
AUC(0-t) [11]: 184 ng·h/mL
AUC(0-inf) (healthy volunteers, CYP2D6 activity 1.5 (n = 6), mean, read-out: AUCinf): 226 ng·h/mL
Cmax [11]: 10.3 ng/mL
AUC(0-t) [12]: 162 ng·h/mL
AUC(0-inf) (healthy volunteers, CYP2D6 activity 2 (n = 11), mean, read-out: AUCinf): 196 ng·h/mL
Cmax [12]: 10 ng/mL
AUC(0-t) [13]: 142 ng·h/mL
AUC(0-inf) (healthy volunteers, CYP2D6 activity 2.5 (n = 1), mean, read-out: AUCinf): 158 ng·h/mL
Cmax [13]: 7 ng/mL
AUC(0-t) [14]: 130 ng·h/mL
AUC(0-inf) (healthy volunteers, CYP2D6 activity 3 (n = 2), mean, read-out: AUCinf): 157 ng·h/mL
Cmax [14]: 10.2 ng/mL
Tmax [1]: 3.4 ± 1.6 h
half-life [1]: 20.3 ± 3.8 h
Tmax [2]: 3.1 ± 1 h
half-life [2]: 20.5 ± 3.9 h
Tmax [3]: 2.9 ± 1.4 h
half-life [3]: 21 ± 4 h
Tmax [4]: 2.6 h
half-life [4]: 21.6 h
Tmax [5]: 2 h
half-life [5]: 20.3 h
Tmax [6]: 3.2 h
half-life [6]: 20.1 h
Tmax [7]: 3.6 h
half-life [7]: 19.8 h
Tmax [8]: 3.4 h
half-life [8]: 23.7 h
Tmax [9]: 2 h
half-life [9]: 24.2 h
Tmax [10]: 2.7 h
SMILES: CN(C)CCC=C1c2ccccc2CCc2ccccc21 [Amitriptyline, amitriptyline]
